Source: patent US6133275A, “3-phenylpyrrolidine alpha-1 adrenergic compounds” (Abbott Laboratories, priority 1998, dated 2000)
Where a name gives a salt, the structure may show the parent alone.

Columns and labels:
α1b (Hamster) = target: T1, α1b (Hamster) (Mesocricetus auratus, UniProt P18841); test: Radioligand binding, displacement of [3H]-prazosin from cloned α1b (hamster) expressed in LTK cells; details: [3H]-prazosin 0.2 nM; cloned hamster α1b in LTK cell membranes; 25° C., 50 minutes
T1 sequence (P18841 1-515): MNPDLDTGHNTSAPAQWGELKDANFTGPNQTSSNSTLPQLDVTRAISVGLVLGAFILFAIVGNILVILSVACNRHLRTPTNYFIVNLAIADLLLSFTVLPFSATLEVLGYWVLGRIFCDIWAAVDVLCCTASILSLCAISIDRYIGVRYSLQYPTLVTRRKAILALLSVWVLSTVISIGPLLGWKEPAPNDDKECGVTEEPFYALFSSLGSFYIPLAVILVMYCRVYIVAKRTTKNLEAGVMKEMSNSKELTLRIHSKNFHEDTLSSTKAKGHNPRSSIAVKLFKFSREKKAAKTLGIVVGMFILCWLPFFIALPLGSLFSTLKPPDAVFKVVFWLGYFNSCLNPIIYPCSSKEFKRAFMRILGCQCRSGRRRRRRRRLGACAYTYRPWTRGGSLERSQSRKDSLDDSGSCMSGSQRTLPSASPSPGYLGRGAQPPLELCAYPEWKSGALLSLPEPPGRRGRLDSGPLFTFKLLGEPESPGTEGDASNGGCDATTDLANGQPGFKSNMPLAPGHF

α1a (Rat) = target: T2, α1a (Rat) (Rattus norvegicus, UniProt P43140); test: Radioligand binding, displacement of [3H]-prazosin from cloned α1a (rat) expressed in LTK cells; details: [3H]-prazosin 0.2 nM; cloned rat α1a in LTK cell membranes; 25° C., 50 minutes
T2 sequence (P43140 1-466): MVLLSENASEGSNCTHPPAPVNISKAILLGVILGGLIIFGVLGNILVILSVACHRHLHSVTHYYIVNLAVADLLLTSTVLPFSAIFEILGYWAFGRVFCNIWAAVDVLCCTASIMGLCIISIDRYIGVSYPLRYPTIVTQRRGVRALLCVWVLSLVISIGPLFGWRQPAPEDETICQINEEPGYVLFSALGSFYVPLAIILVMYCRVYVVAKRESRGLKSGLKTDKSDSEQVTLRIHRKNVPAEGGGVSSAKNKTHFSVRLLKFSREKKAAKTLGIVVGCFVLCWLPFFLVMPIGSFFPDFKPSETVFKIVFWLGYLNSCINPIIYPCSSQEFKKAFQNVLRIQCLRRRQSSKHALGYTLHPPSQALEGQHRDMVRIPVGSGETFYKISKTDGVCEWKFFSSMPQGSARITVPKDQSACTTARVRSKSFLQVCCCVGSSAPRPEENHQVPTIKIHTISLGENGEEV

α1a (Bovine) = target: T3, α1a (Bovine) (Bos taurus, UniProt P18130); test: Radioligand binding, displacement of [3H]-prazosin from cloned α1a (bovine) expressed in LTK cells; details: [3H]-prazosin 0.2 nM; cloned bovine α1a in LTK cell membranes; 25° C., 50 minutes
T3 sequence (P18130 1-466): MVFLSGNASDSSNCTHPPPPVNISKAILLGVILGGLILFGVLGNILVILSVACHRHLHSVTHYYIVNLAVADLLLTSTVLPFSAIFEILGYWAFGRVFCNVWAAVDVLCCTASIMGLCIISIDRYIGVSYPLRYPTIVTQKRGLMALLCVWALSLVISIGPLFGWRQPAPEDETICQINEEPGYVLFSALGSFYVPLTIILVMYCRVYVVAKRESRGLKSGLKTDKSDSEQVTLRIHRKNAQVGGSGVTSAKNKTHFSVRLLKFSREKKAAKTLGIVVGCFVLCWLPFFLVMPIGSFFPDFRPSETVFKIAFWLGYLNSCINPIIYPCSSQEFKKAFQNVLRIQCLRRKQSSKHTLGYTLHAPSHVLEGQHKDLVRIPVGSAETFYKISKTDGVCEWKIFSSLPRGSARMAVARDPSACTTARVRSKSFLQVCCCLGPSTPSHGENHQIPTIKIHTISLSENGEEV

α1d (rat) = target: T4, α1d (rat) (Rattus norvegicus, UniProt P23944); test: Radioligand binding, displacement of [3H]-prazosin from cloned α1d (rat) expressed in LTK cells; details: [3H]-prazosin 0.2 nM; cloned rat α1d in LTK cell membranes; 25° C., 50 minutes
T4 sequence (P23944 1-561): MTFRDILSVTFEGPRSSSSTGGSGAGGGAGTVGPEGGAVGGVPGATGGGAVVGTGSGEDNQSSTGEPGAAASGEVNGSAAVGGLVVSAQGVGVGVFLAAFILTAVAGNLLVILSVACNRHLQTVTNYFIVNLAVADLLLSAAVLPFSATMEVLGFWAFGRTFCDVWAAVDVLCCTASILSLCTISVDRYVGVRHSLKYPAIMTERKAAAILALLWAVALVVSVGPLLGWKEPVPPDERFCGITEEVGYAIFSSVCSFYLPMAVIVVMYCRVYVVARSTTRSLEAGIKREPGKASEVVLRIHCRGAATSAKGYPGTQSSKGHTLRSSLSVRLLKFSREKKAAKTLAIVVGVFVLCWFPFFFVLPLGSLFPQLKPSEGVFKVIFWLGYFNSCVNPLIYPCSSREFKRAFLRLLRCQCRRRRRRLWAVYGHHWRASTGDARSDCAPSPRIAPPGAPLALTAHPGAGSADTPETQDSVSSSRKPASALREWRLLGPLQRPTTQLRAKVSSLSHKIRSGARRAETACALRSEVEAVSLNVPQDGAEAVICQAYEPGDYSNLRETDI

Row | Ki (α1b (Hamster)) [nM] | Ki (α1a (Rat)) [nM] | Ki (α1a (Bovine)) [nM] | Ki (α1d (rat)) [nM] | Compound
1 | 5.61 | 9.33 | 1.67 | 3.86 | COc1ccccc1[C@@H]1CCN(CCn2c(=O)[nH]c3c(sc4ccccc43)c2=O)C1 [Example 25, (S)-3-[2-[3-(2-methoxyphenyl)-1-pyrrolidinyl]ethyl]-[1]benzothieno[3,2-d]pyrimidine-2,4(1H,3H)-dione Monohydrochloride]
2 | 1.77 | 0.12 | 0.05 | 0.22 | COc1ccccc1[C@H]1CCN(CCCCn2c(=O)[nH]c3c(sc4cccnc43)c2=O)C1 [Example 6, (R)-3-[4-[3-(2-Methoxyphenyl)-1-pyrrolidinyl]butyl]pyrido[2',3':4,5]thieno[3,2-d]pyrimidine-2,4(1H,3H)-dione Dihydrochloride]
3 | 1.76 | 0.12 | 0.06 | 0.09 | COc1ccccc1[C@H]1CCN(CCCCn2c(=O)[nH]c3c(sc4ncccc43)c2=O)C1 [Example 8, (R)-3-[4-[3-(2-Methoxyphenyl)-1-pyrrolidinyl]butyl]pyrido[3',2':4,5]thieno[3,2-d]pyrimidine-2,4(1H,3H)-dione, Dihydrochloride]
4 | 59.7 | 34 | 5.95 | 20 | COc1cccc([C@H]2CCN(CCn3c(=O)[nH]c4c(sc5ccccc54)c3=O)C2)c1 [Example 3, (R)-3-[2-[3-(3-Methoxyphenyl)-1-pyrrolidinyl]ethyl]-[1]benzothieno[3,2-d]pyrimidine-2,4(1H,3H)-dione Monohydrochloride]
5 | 7.38 | 3.3 | 0.32 | 2.35 | COc1ccccc1[C@H]1CCN(CCCCCn2c(=O)[nH]c3c(sc4ncccc43)c2=O)C1 [Example 9, (R)-3-[5-[3-(2-methoxyphenyl)-1-pyrrolidinyl]pentyl]pyrido[3',2':4,5]thieno[3,2-d]pyrimidine-2,4(1H,3H)-dione, Dihydrochloride]
6 | 0.96 | 0.32 | 0.06 | 0.28 | COc1ccccc1[C@H]1CCN(CCCCN2C(=O)c3ccccc3C2=O)C1 [Example 12, (R)-2-[4-[3-(2-methoxyphenyl)-1-pyrrolidinyl]butyl]-1H-isoindole-1,3(2H)-dione, Monohydrochloride]
7 | 1.52 | 2.61 | 0.83 | 2.38 | COc1ccccc1[C@H]1CCN(CCn2c(=O)[nH]c3c(sc4cccnc43)c2=O)C1 [Example 4, (R)-3-[2-[3-(2-Methoxyphenyl)-1-pyrrolidinyl]ethyl]pyrido[2',3':4,5]thieno[3,2-d]pyrimidine-2,4(1H,3H)-dione bis(hydrochloride) Salt]
8 | 20 | 7.37 | 2.81 | 5.19 | COc1cccc([C@H]2CCN(CCCCn3c(=O)[nH]c4c(sc5ncccc54)c3=O)C2)c1 [Example 24, (R)-3-[4-[3-(3-methoxyphenyl)-1-pyrrolidinyl]butyl]pyrido[3',2':4,5]thieno[3,2-d]pyrimidine-2,4(1H,3H)-dione, Dihydrochloride]
9 | 1.18 | 0.22 | 0.05 | 0.06 | COc1ccccc1[C@H]1CCN(CCCCn2c(=O)[nH]c3c(sc4ccc(Cl)nc43)c2=O)C1 [Example 10, (R)-8-chloro-3-[4-[3-(2-methoxyphenyl)-1-pyrrolidinyl]butyl]pyrido[2',3':4,5]thieno[3,2-d]pyrimidine-2,4(1H,3H)-dione, Dihydrochloride]
10 | 2.37 | 0.26 | 0.06 | 0.15 | COc1cnc2sc3c(=O)n(CCCCN4CC[C@H](c5ccccc5OC)C4)c(=O)[nH]c3c2n1 [Example 15, (R)-8-Methoxy-3-[4-[3-(2-methoxyphenyl)-1-pyrrolidinyl]butyl]pyrazino-[2',3':4,5]thieno[3,2-d]pyrimidine-2,4(1H,3H)-dione, Dihydrochloride]
11 | 194 | 46.3 | 12 | 69.4 | COc1cccc([C@H]2CCN(CCn3c(=O)[nH]c4c(sc5cccnc54)c3=O)C2)c1 [Example 20, (R)-3-[2-[3-(3-methoxyphenyl)-1-pyrrolidinyl]ethyl]pyrido[2',3':4,5]thieno[3,2-d]pyrimidine-2,4(1H,3H)-dione, Dihydrochloride]
12 | 0.62 | 0.18 | 0.02 | 0.03 | COc1ccccc1[C@H]1CCN(CCCCn2c(=O)[nH]c3c(sc4ccccc43)c2=O)C1 [Example 2, (R)-3-[4-[3-(2-Methoxyphenyl)-1-pyrrolidinyl]butyl]-[1]benzothieno[3,2-d]pyrimidine-2,4(1H,3H)-dione Monohydrochloride]
13 | 15.7 | 14.4 | 2.46 | 8.48 | COc1ccccc1[C@@H]1CCN(CCn2c(=O)[nH]c3c(sc4cccnc43)c2=O)C1 [Example 27, (S)-3-[2-[3-(2-methoxyphenyl)-1-pyrrolidinyl]ethyl]pyrido[2',3':4,5]thieno[3,2-d]pyrimidine-2,4(1H,3 H)-dione, Dihydrochloride]
14 | 5.9 | 0.22 | 0.09 | 0.47 | COc1ccccc1[C@H]1CCN(CCCCn2c(=O)[nH]c3c(sc4ncc(Cl)nc43)c2=O)C1 [Example 14, (R)-8-Chloro-3-[4-[3-(2-methoxyphenyl)-1-pyrrolidinyl]butyl]pyrazino[2',3':4,5]thieno[3,2-d]pyrimidine-2,4(1H,3H)-dione, Dihydrochloride]
15 | 4.86 | 2.11 | 0.18 | 2.13 | COc1ccccc1[C@H]1CCN(CCCCCn2c(=O)[nH]c3c(sc4cccnc43)c2=O)C1 [Example 7, (R)-3-[5-[3-(2-Methoxyphenyl)-1-pyrrolidinyl]pentyl]pyrido[2',3':4,5]thieno[3,2-d]pyrimidine-2,4(1H,3H)-dione, Dihydrochloride]
16 | 1.79 | 0.67 | 0.11 | 0.12 | COc1ccc2sc3c(=O)n(CCCCN4CC[C@H](c5ccccc5OC)C4)c(=O)[nH]c3c2n1 [Example 11, (R)-8-methoxy-3-[4-[3-(2-methoxyphenyl)-1-pyrrolidinyl]butyl]pyrido-[2',3':4,5]thieno[3,2-d]pyrimidine-2,4(1H,3H)-dione, Dihydrochloride]
17 | 2.99 | 0.21 | 0.07 | 0.36 | COc1ccccc1[C@H]1CCN(CCCCn2c(=O)[nH]c3c(sc4nccnc43)c2=O)C1 [Example 13, (R)-3-[4-[3-(2-Methoxyphenyl)-1-pyrrolidinyl]butyl]pyrazino[2',3':4,5]thieno[3,2-d]pyrimidine-2,4(1H,3H)-dione, Dihydrochloride]
